Assays:
[1] = target: T1, WRN (Homo sapiens, UniProt Q14191); assay: WRN ATPase activity assay (ADP-Glo); type: biochemical; conditions: 1-hr pre-incubation with enzyme; 100 μM ATP, 25 nM forked dsDNA, 1 nM WRN; geometric mean of at least 2 replicates
T1 construct: A His-tagged construct of WRN (AA S2-S1235) was produced and used for the ATPase assay; His; made in house; host or cells: Sf9 insect cells (baculovirus)
Experimental: Compounds of the Examples were tested for WRN ATPase activity. WRN ATPase activity catalyzes ATP hydrolysis to produce ADP and phosphate. DNA encoding the target protein, 6×HIS-TEV-WRN-517-945, was produced, cloned and transfected as detailed in Example D. The amount of ADP produced was measured using ADP-Glo™ Kinase Assay kit from Promega Corporation in a Greiner white regular volume 384 wells assay plate (Greiner #781075). Data was normalized to a standard curve generated using various ADP concentrations and the corresponding luminescent signal intensities at each concentration. The assay conditions were optimized for enzyme concentration (WRN), substrate concentrations (ATP & dsDNA), and the linearity of the ATPase reaction, in the following assay buffer: 50 mM Tris-HCl, pH-7.5, 2 mM MgCl2, 50 mM NaCl, 1 mM EGTA, 0.01% P-20, 0.05% BSA, and 2 mM DTT prepared with nuclease free water.
A serial dilution (1:3 scheme) of the compounds were prepared in neat DMSO, with 100 nL of the compounds dispensed in the 384 wells assay plate. An 1-hr pre-incubation of the compounds with enzyme was included. A His-tagged construct of WRN (AA S2-S1235) was produced and used for the ATPase assay. Maximum inhibition control wells were set up with the addition of only assay buffer, and no inhibition control wells were set up with neat DMSO without test compounds. The reaction was initiated by addition of 5 μL substrate mix (200 μM ultrapure ATP, and 50 nM dsDNA prepared in assay buffer) and incubated at 25° C. for 35 min. A forked dsDNA oligomer substrate was prepared by annealing equal amounts of oligo GPat-1 ([BHQ2][…]) and oligo GPat-2 ([…][TAM]) and was used as dsDNA substrate for WRN ATPase assay. A typical ATPase reaction consists of 25 nM forked dsDNA, 100 μM ATP, and 1 nM WRN prepared in assay buffer. The WRN ATPase reaction was stopped by the addition of 5 μL of ADP-Glo Reagent from ADP-Glo™ Kinase Assay kit and incubated for 40 min to deplete the unreacted ATP. Afterwards, 5 μL of Kinase Detection Reagent from the ADP-Glo™ Kinase Assay kit was added and incubated for 1 hr for the development of luminescence signal.
Luminesce signals were measured on BMG PHERAstar FSX using luminescence protocol. Data analysis was carried out using Genedata software following % of control normalization. Fitting parameters include dose response IC50, Hill slope (n), maximum inhibition (S∞), and minimum inhibition (S0). The reported IC50 values for compounds in this invention are the geometric means of at least 2 independent replicates.

[2] = target: T1, WRN; assay: WRN Helicase activity assay (fluorescence DNA unwinding); type: biochemical; conditions: 1-hr pre-incubation with enzyme; 100 μM ATP, 25 nM forked dsDNA, 1 nM WRN; geometric mean of at least 2 replicates
Experimental: Compounds of the examples were tested for WRN helicase activity. DNA encoding the target protein, 6×HIS-TEV-WRN-517-945, was produced, cloned and transfected as detailed in Example D. To determine the inhibitory properties of the compounds, a 384 wells plate-based Helicase assay was set up to measure the extent of DNA unwinding (Helicase) activity of WRN. The WRN Helicase assay was designed to measure increase in fluorescence signal using a fluorescence based, donor-quencher paired forked dsDNA oligomer substrate (custom synthesis from Sigma-Aldrich) prepared by annealing equal amounts of oligo GPat-1 ([BHQ2][…]) and oligo GPat-2 ([…][TAM]). Continuous measurement of fluorescent signal was used to optimize the buffer conditions, concentration of enzyme (WRN), concentration of substrates (ATP & dsDNA), and the linearity of the Helicase reaction. All solutions were prepared in the following assay buffer: 50 mM Tris-HCl, pH-7.5, 2 mM MgCl2, 50 mM NaCl, 1 mM EGTA, 0.01% P-20, 0.05% BSA, and 2 mM DTT prepared with nuclease free water.
A serial dilution (1:3 scheme) of the compounds was prepared in neat DMSO and 100 nL of the compounds was dispensed in the Greiner black low volume (Greiner #784076) 384 wells assay plate. An 1-hr pre-incubation of the compounds with enzyme was included. A His-tagged construct of WRN (AA S2-S1235) was produced and used for the ATPase assay. Maximum inhibition control wells were set up with the addition of only assay buffer, and no inhibition control wells were set up with neat DMSO without test compounds. The reaction was initiated by addition of 5 μL substrate mix (200 μM ultrapure ATP, and 50 nM dsDNA prepared in assay buffer) and incubated at 25° C. for 35 min. A typical Helicase reaction consists of 25 nM forked dsDNA, 100 μM ATP, and 1 nM WRN prepared in assay buffer. The WRN Helicase reaction was quenched by the addition of 5 μL ‘STOP’ solution containing 100 mM EDTA (final EDTA concentration 33.33 mM) prepared in assay buffer. The plates were read on BMG PHERAstar FSX using 540/590 module to measure an increase of fluorescence. Data analysis was carried out using the Genedata software following % of control normalization. Fitting parameters include dose response IC50, Hill slope (n), maximum inhibition (S∞), and minimum inhibition (S0). The reported IC50 values for compounds in this invention are the geometric means of at least 2 independent replicates.

T1 sequence (Q14191 2-1235): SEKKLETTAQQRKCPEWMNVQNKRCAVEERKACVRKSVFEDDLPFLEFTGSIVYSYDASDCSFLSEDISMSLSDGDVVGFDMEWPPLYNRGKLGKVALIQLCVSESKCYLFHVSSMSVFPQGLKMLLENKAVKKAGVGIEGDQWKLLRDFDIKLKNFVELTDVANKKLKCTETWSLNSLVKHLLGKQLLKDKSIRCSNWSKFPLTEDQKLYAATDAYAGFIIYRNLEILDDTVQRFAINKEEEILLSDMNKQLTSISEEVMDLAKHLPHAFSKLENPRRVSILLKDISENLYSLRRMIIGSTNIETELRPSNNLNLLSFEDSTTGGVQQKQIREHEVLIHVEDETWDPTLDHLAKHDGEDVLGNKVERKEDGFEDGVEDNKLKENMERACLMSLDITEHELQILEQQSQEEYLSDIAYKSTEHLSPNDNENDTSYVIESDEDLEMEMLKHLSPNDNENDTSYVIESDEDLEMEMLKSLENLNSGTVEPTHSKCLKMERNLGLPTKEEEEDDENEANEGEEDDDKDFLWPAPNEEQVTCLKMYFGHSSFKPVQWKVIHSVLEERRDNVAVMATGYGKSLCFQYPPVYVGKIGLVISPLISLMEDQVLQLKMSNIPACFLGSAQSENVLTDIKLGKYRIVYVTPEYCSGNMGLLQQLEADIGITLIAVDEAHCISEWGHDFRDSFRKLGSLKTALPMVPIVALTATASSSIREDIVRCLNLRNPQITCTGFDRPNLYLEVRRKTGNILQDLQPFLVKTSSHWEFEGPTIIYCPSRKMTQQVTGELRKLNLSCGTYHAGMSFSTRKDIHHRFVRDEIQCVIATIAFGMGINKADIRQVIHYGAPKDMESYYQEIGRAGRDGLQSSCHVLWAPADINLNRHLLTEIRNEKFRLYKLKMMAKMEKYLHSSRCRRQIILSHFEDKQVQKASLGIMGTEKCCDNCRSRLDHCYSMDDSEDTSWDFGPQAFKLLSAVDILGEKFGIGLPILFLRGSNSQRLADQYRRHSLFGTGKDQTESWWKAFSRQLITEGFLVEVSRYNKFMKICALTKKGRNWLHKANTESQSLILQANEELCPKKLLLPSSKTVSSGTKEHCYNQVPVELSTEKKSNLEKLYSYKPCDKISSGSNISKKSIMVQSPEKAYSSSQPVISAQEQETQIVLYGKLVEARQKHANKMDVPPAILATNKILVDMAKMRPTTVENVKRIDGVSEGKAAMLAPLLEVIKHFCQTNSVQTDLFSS

SMILES | IC50 [1] [nM] | IC50 [2] [nM]
C=CS(=O)(=O)Nc1ccccc1-c1c(C)n(CC(=O)Nc2ccc(F)cc2)c2nc(CC)c(-c3ccccc3)c(=O)n12 [Example 38, 2-(7-Ethyl-2-methyl-5-oxo-6-phenyl-3-(2-(vinylsulfonamido)phenyl)imidazo[1,2-a]pyrimidin-1(5H)-yl)-N-(4-fluorophenyl)acetamide] | < 100 | < 100
C=CC(=O)Nc1cc(C(=O)NCCOC)ccc1-c1c(CC)nc2n(CC(=O)Nc3ccc(C(F)(F)F)cc3)c(C)c(C)n2c1=O [Example 31, 3-Acrylamido-4-(7-ethyl-2,3-dimethyl-5-oxo-1-(2-oxo-2-((4-(trifluoromethyl)phenyl)amino)ethyl)-1,5-dihydroimidazo[1,2-a]pyrimidin-6-yl)-N-(2-methoxyethyl)benzamide] | < 100 | < 100
C=CC(=O)Nc1ccccc1-c1c(C)nc2n(CC(=O)Nc3ccc(F)cc3)c(C)c(C)n2c1=O [Example 19, N-(2-(1-(2-((4-Fluorophenyl)amino)-2-oxoethyl)-2,3,7-trimethyl-5-oxo-1,5-dihydroimidazo[1,2-a]pyrimidin-6-yl)phenyl)acrylamide] | < 100 | < 100
C=CC(=O)Nc1ccccc1-c1cn(CC(=O)Nc2ccc(C(F)(F)F)cc2)c2nc(CC)c(N3CCN(C(=O)c4ncccc4O)CC3)c(=O)n12 [Example 36, N-(2-(7-Ethyl-6-(4-(3-hydroxypicolinoyl)piperazin-1-yl)-5-oxo-1-(2-oxo-2-((4-(trifluoromethyl)phenyl)amino)ethyl)-1,5-dihydroimidazo[1,2-a]pyrimidin-3-yl)phenyl)acrylamide] | < 100 | < 100
C=CC(=O)Nc1cc(C(=O)NC2(CO)CC2)ccc1-c1c(CC)nc2n(CC(=O)Nc3ccc(C(F)(F)F)cc3)c(C)c(C)n2c1=O [Example 34, 3-Acrylamido-4-(7-ethyl-2,3-dimethyl-5-oxo-1-(2-oxo-2-((4-(trifluoromethyl)phenyl)amino)ethyl)-1,5-dihydroimidazo[1,2-a]pyrimidin-6-yl)-N-(1-(hydroxymethyl)cyclopropyl)benzamide] | < 100 | < 100
C=CC(=O)Nc1cc(C(=O)N2CCOCC2)ccc1-c1c(CC)nc2n(CC(=O)Nc3ccc(C(F)(F)F)cc3)c(C)c(C)n2c1=O [Example 35, N-(2-(7-Ethyl-2,3-dimethyl-5-oxo-1-(2-oxo-2-((4-(trifluoromethyl)phenyl)amino)ethyl)-1,5-dihydroimidazo[1,2-a]pyrimidin-6-yl)-5-(morpholine-4-carbonyl)phenyl)acrylamide] | < 100 | < 100
CCc1nc2n(CC(=O)Nc3ccc(C(F)(F)F)cc3)c(C)cn2c(=O)c1-c1ccccc1NC(=O)CCl [Example 7, 2-Chloro-N-(2-(7-ethyl-2-methyl-5-oxo-1-(2-oxo-2-((4-(trifluoromethyl)phenyl)amino)ethyl)-1,5-dihydroimidazo[1,2-a]pyrimidin-6-yl)phenyl)acetamide] | < 100 | < 100
C=CC(=O)Nc1ccccc1-c1c(CC)nc2n(CC(=O)Nc3ccc(C(F)(F)F)cc3)c(C)c(C3CC3)n2c1=O [Example 14, N-(2-(3-Cyclopropyl-7-ethyl-2-methyl-5-oxo-1-(2-oxo-2-((4-(trifluoromethyl)phenyl)amino)ethyl)-1,5-dihydroimidazo[1,2-a]pyrimidin-6-yl)phenyl)acrylamide] | < 100 | < 100
C=CC(=O)Nc1cc(S(C)(=O)=O)ccc1-c1c(CC)nc2n(CC(=O)Nc3ccc(C(F)(F)F)cc3)c(C)cn2c1=O [Example 3, N-(2-(7-Ethyl-2-methyl-5-oxo-1-(2-oxo-2-((4-(trifluoromethyl)phenyl)amino)ethyl)-1,5-dihydroimidazo[1,2-a]pyrimidin-6-yl)-5-(methylsulfonyl)phenyl)acrylamide] | < 100 | < 100
C=CC(=O)Nc1ccccc1-c1c(CC)nc2n(CC(=O)Nc3ccc(F)cc3)c(C)c(C)n2c1=O [Example 18, N-(2-(7-Ethyl-1-(2-((4-fluorophenyl)amino)-2-oxoethyl)-2,3-dimethyl-5-oxo-1,5-dihydroimidazo[1,2-a]pyrimidin-6-yl)phenyl)acrylamide] | < 100 | < 100

Second part, the compound after the results:

IC50 [1] [nM] | IC50 [2] [nM] | SMILES
< 100 | < 100 | C=CC(=O)Nc1cc(C(=O)NC2CCOCC2)ccc1-c1c(CC)nc2n(CC(=O)Nc3ccc(C(F)(F)F)cc3)c(C)cn2c1=O [Example 13, 3-Acrylamido-4-(7-ethyl-2-methyl-5-oxo-1-(2-oxo-2-((4-(trifluoromethyl)phenyl)amino)ethyl)-1,5-dihydroimidazo[1,2-a]pyrimidin-6-yl)-N-(tetrahydro-2H-pyran-4-yl)benzamide]
< 100 | < 100 | C=CC(=O)Nc1cc(C(=O)NCC(F)F)ccc1-c1c(CC)nc2n(CC(=O)Nc3ccc(C(F)(F)F)cc3)c(C)cn2c1=O [Example 11, 3-Acrylamido-N-(2,2-difluoroethyl)-4-(7-ethyl-2-methyl-5-oxo-1-(2-oxo-2-((4-(trifluoromethyl)phenyl)amino)ethyl)-1,5-dihydroimidazo[1,2-a]pyrimidin-6-yl)benzamide]
< 100 | < 100 | C=CC(=O)Nc1cc(C(=O)N[C@H]2CCCOC2)ccc1-c1c(CC)nc2n(CC(=O)Nc3ccc(C(F)(F)F)cc3)c(C)c(C)n2c1=O [Example 33, (S)-3-Acrylamido-4-(7-ethyl-2,3-dimethyl-5-oxo-1-(2-oxo-2-((4-(trifluoromethyl)phenyl)amino)ethyl)-1,5-dihydroimidazo[1,2-a]pyrimidin-6-yl)-N-(tetrahydro-2H-pyran-3-yl)benzamide]
< 100 | < 100 | C=CC(=O)Nc1cc(C(=O)NC2CC2)ccc1-c1c(CC)nc2n(CC(=O)Nc3ccc(C(F)(F)F)cc3)c(C)c(C)n2c1=O [Example 23, 3-Acrylamido-N-cyclopropyl-4-(7-ethyl-2,3-dimethyl-5-oxo-1-(2-oxo-2-((4-(trifluoromethyl)phenyl)amino)ethyl)-1,5-dihydroimidazo[1,2-a]pyrimidin-6-yl)benzamide]
< 100 | < 100 | C=CC(=O)Nc1cc(C(=O)NC2CCC2)ccc1-c1c(CC)nc2n(CC(=O)Nc3ccc(C(F)(F)F)cc3)c(C)c(C)n2c1=O [Example 29, 3-Acrylamido-N-cyclobutyl-4-(7-ethyl-2,3-dimethyl-5-oxo-1-(2-oxo-2-((4-(trifluoromethyl)phenyl)amino)ethyl)-1,5-dihydroimidazo[1,2-a]pyrimidin-6-yl)benzamide]
